Laboratory results from US20020082273A1, “Agents for use in the treatment of alzheimer's disease” (priority 1998, published 2002).

Assay: Cu^2+-induced SDS-resistant polymerization of Aβ peptides, western blot image analysis
Format: biochemical, human
Conditions: for conversion of monomer to dimer / conversion of monomer to trimer: Cu^2+ 30 μM
Protocol: Following incubation (37° C.), aliquots of each reaction (2 ng peptide) were collected at 0 d, 1 d, 3 d and 5 d and western blotted using anti-Aβ monoclonal antibody 8E10 (FIG. 9). Migration of the molecular size markers are indicated (kDa). […] It should be noted that other means of visualizing and/or determining the presence or absence of polymerization other than western blot analysis may be used. Such other means include but are not limited to density sedimentation by centrifugation of the samples.
The generation of SDS-resistant Aβ polymers by metal ions was tested by incubating Cu^2+ (30 μM) or Zn^2+ (30 μM) at pH 6.6, 7.4 and 9.0 with Aβ1-40.
(0-30 μM) at pH 7.4 and 6.6 and the samples analyzed by Western blot and the signal quantitated using the Fluoro-S Image Analysis System (Bio-Rad, Hercules, Calif.) as previously described.

## Aβ1-40: synthetic human Aβ peptide, residues 1-40
pH 6.6, 5 d
  conversion of monomer to dimer: 29%
  conversion of monomer to trimer: 2%
pH 7.4, 5 d
  conversion of monomer to dimer: 42%
  conversion of monomer to trimer: 9%
No added metal, pH 6.6, 7.4 or 9.0, 5 d
  peptide converted to SDS-resistant dimer: Less than 4%
pH 6.6, [Cu^2+] 0
  SDS-resistant polymers: Dimer: 2.1
  SDS-resistant polymers: Monomer: 97.9
  SDS-resistant polymers: Pentamer: 0
  SDS-resistant polymers: Tetramer: 0
  SDS-resistant polymers: Trimer: <0.1
pH 6.6, [Cu^2+] 0.5
  SDS-resistant polymers: Dimer: 2.2
  SDS-resistant polymers: Monomer: 97.6
  SDS-resistant polymers: Pentamer: 0
  SDS-resistant polymers: Tetramer: 0
  SDS-resistant polymers: Trimer: 0.2
pH 6.6, [Cu^2+] 1
  SDS-resistant polymers: Dimer: 7.3
  SDS-resistant polymers: Monomer: 92.6
  SDS-resistant polymers: Pentamer: 0
  SDS-resistant polymers: Tetramer: 0
  SDS-resistant polymers: Trimer: 0.1
pH 6.6, [Cu^2+] 5
  SDS-resistant polymers: Dimer: 9.8
  SDS-resistant polymers: Monomer: 90.1
  SDS-resistant polymers: Pentamer: 0
  SDS-resistant polymers: Tetramer: 0
  SDS-resistant polymers: Trimer: 0.1
pH 6.6, [Cu^2+] 10
  SDS-resistant polymers: Dimer: 16.1
  SDS-resistant polymers: Monomer: 79.4
  SDS-resistant polymers: Pentamer: 0
  SDS-resistant polymers: Tetramer: 0
  SDS-resistant polymers: Trimer: 4.5
pH 6.6, [Cu^2+] 30
  SDS-resistant polymers: Dimer: 13.2
  SDS-resistant polymers: Monomer: 74.5
  SDS-resistant polymers: Pentamer: 0
  SDS-resistant polymers: Tetramer: 0
  SDS-resistant polymers: Trimer: 12.2
pH 6.6, [Cu^2+] increased from 0.5 to 1 μM
  increase in dimerization: over 3 fold
pH 7.4, [Cu^2+] 0
  SDS-resistant polymers: Dimer: 3.2
  SDS-resistant polymers: Monomer: 96.8
  SDS-resistant polymers: Pentamer: 0
  SDS-resistant polymers: Tetramer: 0
  SDS-resistant polymers: Trimer: <0.1
pH 7.4, [Cu^2+] 0.5
  SDS-resistant polymers: Dimer: 4.9
  SDS-resistant polymers: Monomer: 94.8
  SDS-resistant polymers: Pentamer: 0
  SDS-resistant polymers: Tetramer: 0
  SDS-resistant polymers: Trimer: 0.3
pH 7.4, [Cu^2+] 1
  SDS-resistant polymers: Dimer: 5.9
  SDS-resistant polymers: Monomer: 93.6
  SDS-resistant polymers: Pentamer: 0
  SDS-resistant polymers: Tetramer: 0
  SDS-resistant polymers: Trimer: 0.6
pH 7.4, [Cu^2+] 5
  SDS-resistant polymers: Dimer: 14.2
  SDS-resistant polymers: Monomer: 84.3
  SDS-resistant polymers: Pentamer: 0
  SDS-resistant polymers: Tetramer: 0
  SDS-resistant polymers: Trimer: 1.5
pH 7.4, [Cu^2+] 10
  SDS-resistant polymers: Dimer: 13.2
  SDS-resistant polymers: Monomer: 85.2
  SDS-resistant polymers: Pentamer: 0
  SDS-resistant polymers: Tetramer: 0
  SDS-resistant polymers: Trimer: 1.6
pH 7.4, [Cu^2+] 30
  SDS-resistant polymers: Dimer: 19.1
  SDS-resistant polymers: Monomer: 76.2
  SDS-resistant polymers: Pentamer: 0
  SDS-resistant polymers: Tetramer: 0
  SDS-resistant polymers: Trimer: 4.7
